Among the data in ChEMBL document CHEMBL4483862, “Open-source discovery of chemical leads for next-generation chemoprotective antimalarials” (2018) are IC50 and IC90 values, retold here.

In the test the test system is Plasmodium berghei. Description: Luciferase/luciferin-expressing antifolate-resistant parasites were used to infect a culture of HepG2 cells that were pre-incubated with compounds. Infected hepatocytes emit light due to the luciferase reaction. Assay results are presented as the percent inhibition of light emission compared to control. […]. In kind it is functional. The conditions noted are these: sporozoite; for IC90: read-out: LUCIFERASE INFECTION ASSAY - IC90.

Where [1] appears, read: read-out: LUCIFERASE INFECTION ASSAY - IC50.

Where only a bound is given, the exact number is not on record here.

In the case of `CN1CCCN(c2ncnc3cc(-c4ccc(Cl)cc4)sc23)CC1`, the IC90 was more than 10 µM. In addition, the concentration for half-maximal inhibition (IC50) (PBLUC_HILL_SLOPE 23.2, PBLUC_R_SQUARED 0.558, read-out: LUCIFERASE INFECTION ASSAY - IC50) is 9.79 µM.
Consider `CC/C(=N\OC(=O)c1cccc(C(F)(F)F)c1)c1ccc(-c2ccccc2F)cc1`, for which the concentration for an effect of 90% (IC90) is more than 7.94 µM. The IC50 (HEPG2TOX_HILL_SLOPE 1.72, HEPG2TOX_R_SQUARED 0.909, PBLUC_HILL_SLOPE 3.88, PBLUC_R_SQUARED 0.158, read-out: LUCIFERASE INFECTION ASSAY - IC50) was determined as 6.84 µM.
For `N#CC(c1ccccc1)c1ccc(NC(=S)NCC2CCCO2)cc1Cl` (stereo unspecified), the 90% effect concentration (IC90) was more than 10 µM. Where the note is “PBLUC_HILL_SLOPE 1.33, PBLUC_R_SQUARED 0.895, read-out: LUCIFERASE INFECTION ASSAY - IC50”, the IC50 stood at 4.42 µM.
With `CC1(C)CC(=O)C=C(Nc2ccc(Oc3ccccc3)cc2)C1`, the 90% effect concentration (IC90) was more than 10.7 µM. Moreover, the IC50 (PBLUC_HILL_SLOPE 1.19, PBLUC_R_SQUARED 0.428, read-out: LUCIFERASE INFECTION ASSAY - IC50) worked out at 2.19 µM.
On to `COc1cccc(C(O)c2nc(C(=O)Nc3ccc(OCc4ccccc4)cc3)cs2)c1` (stereo unspecified), for which the IC90 stood at 4.39 µM. In addition, the IC50 (HEPG2TOX_HILL_SLOPE 0.759, HEPG2TOX_R_SQUARED 0.957, PBLUC_HILL_SLOPE 2.06, PBLUC_R_SQUARED 0.859, read-out: LUCIFERASE INFECTION ASSAY - IC50) came out at 1.51 µM.
Turning to `CC(=O)N(c1ccc(Cl)c(Cl)c1)c1nc(CN2CCCCCC2)cs1`, the IC90 was determined as 9.28 µM. In addition, under setting [1], the half-maximal inhibitory concentration (IC50) is 4.55 µM.
In the case of `CO/N=C/NC(=O)/C(C#N)=C/N(C)C`, the IC90 was more than 16.8 µM. Further, for the setting “PBLUC_HILL_SLOPE 13.3, PBLUC_R_SQUARED 0.155, read-out: LUCIFERASE INFECTION ASSAY - IC50”, the half-inhibitory concentration (IC50) amounted to 14.6 µM.
Take `NC(Cc1ccc(F)cc1)c1csc(NC(=O)c2ccc(F)c(Cl)c2)n1` (stereo unspecified): the IC90 was found to be 5.68 µM. Besides, the IC50 (PBLUC_HILL_SLOPE 84.1, PBLUC_R_SQUARED 0.0637, read-out: LUCIFERASE INFECTION ASSAY - IC50) is 5.54 µM.
With `O=C(c1cccc2ccccc12)N(c1ccc(F)cc1)c1nc2ccccc2s1`, the concentration for an effect of 90% (IC90) was more than 10 µM. Further, the 50% inhibitory concentration (IC50) (PBLUC_HILL_SLOPE 22.2, PBLUC_R_SQUARED 0.211, read-out: LUCIFERASE INFECTION ASSAY - IC50) stood at 9.18 µM.
Turning to `COC(=O)c1scc(S(=O)(=O)c2ccc(Cl)cc2)c1C`, the IC90 was more than 9.98 µM. For the same compound, under setting [1], the IC50 was more than 9.98 µM.
For the compound `Cc1cc(C)cc(NC(=O)C(NCC(C(C)C)N2CCOCC2)c2ccccc2)c1` (stereo unspecified), the IC90 is more than 10 µM. Further, the concentration for half-maximal inhibition (IC50) (PBLUC_HILL_SLOPE 13.4, 2.47, PBLUC_R_SQUARED 0.208, 0.834, read-out: LUCIFERASE INFECTION ASSAY - IC50) was 6.61 µM.
Take `CN(NC(=O)c1cccc(C(F)(F)F)c1)c1c(C#N)c(C(F)(F)F)nn1C`: the IC90 was more than 8.43 µM. For the same compound, the IC50 under setting [1] was more than 8.43 µM.
As for `CS(=O)(=O)c1nc2ccccc2n1Cc1cc(=O)n2ccccc2n1`, the IC90 is more than 10 µM. Also, the concentration for half-maximal inhibition (IC50) (PBLUC_HILL_SLOPE 1.24, PBLUC_R_SQUARED 0.679, read-out: LUCIFERASE INFECTION ASSAY - IC50) amounted to 5.51 µM.
As to `Cc1ccc(NC(=O)COc2ccc3c(=O)c(-c4ccccc4)c(C)oc3c2)cc1[N+](=O)[O-]`, the IC90 is more than 10 µM. For the same compound, the IC50 under setting [1] is more than 10 µM.
For the compound `Cc1ccc(C(C=CC(C#N)C#N)=Nc2ccc(Cl)cc2)cc1`, the IC90 was more than 10.3 µM. The half-inhibitory concentration (IC50) under setting [1] is more than 10.3 µM.
With `CC1CCCN(c2ccc(C#N)cn2)C1` (stereo unspecified), the concentration for an effect of 90% (IC90) was more than 10 µM. The IC50 (HEPG2TOX_HILL_SLOPE 1.55, HEPG2TOX_R_SQUARED 0.88, PBLUC_HILL_SLOPE 1.47, PBLUC_R_SQUARED 0.333, read-out: LUCIFERASE INFECTION ASSAY - IC50) is more than 10 µM.
Turning to `CC(NC(=O)c1ccccc1NC(=O)CN1CCN(C/C=C/c2ccccc2)CC1)c1ccccc1` (stereo unspecified), the IC90 amounted to 8.52 µM. Moreover, for the setting “PBLUC_HILL_SLOPE 3.6, PBLUC_R_SQUARED 0.261, read-out: LUCIFERASE INFECTION ASSAY - IC50”, the half-inhibitory concentration (IC50) is 4.62 µM.
In the case of `Cc1sc2ncnc(SCC(=O)NC3CCN(Cc4ccccc4)C3)c2c1C` (stereo unspecified), the IC90 was more than 10 µM. Besides, the concentration for half-maximal inhibition (IC50) under setting [1] is more than 10 µM.
For the compound `COc1ccc(-c2cc(C3(CNCc4ccc(N(C)C)cc4)CC3)ccn2)cn1`, the 90% effect concentration (IC90) is more than 10 µM. Besides, under setting [1], the IC50 is more than 10 µM.
On to `O=C(Cc1ccc(Cl)cc1)N1CCc2nc(NCc3cccc(Oc4ccccc4)c3)ncc2C1`, for which the IC90 is more than 6.8 µM. Further, the IC50 (PBLUC_HILL_SLOPE 4.18, PBLUC_R_SQUARED 0.529, read-out: LUCIFERASE INFECTION ASSAY - IC50) amounted to 4.95 µM.
On to `CC1(C)CC(Nc2ncnc3sc(-c4ccccc4)cc23)CC(C)(C)N1`, for which the 90% effect concentration (IC90) was more than 10 µM. Moreover, the concentration for half-maximal inhibition (IC50) (PBLUC_HILL_SLOPE 16.4, PBLUC_R_SQUARED 0.0474, read-out: LUCIFERASE INFECTION ASSAY - IC50) was determined as 8.84 µM.
Consider `OCc1ccc(-c2cn3c(-c4cccc(OC(F)(F)F)c4)cnc3cn2)cc1`, for which the IC90 amounted to 4.85 µM. The IC50 (PBLUC_HILL_SLOPE 9.63, PBLUC_R_SQUARED 0.631, read-out: LUCIFERASE INFECTION ASSAY - IC50) was 3.86 µM.
In the case of `CC1Sc2ccc(Cl)cc2C(=O)/C1=C/c1ccc(C(F)(F)F)cc1` (stereo unspecified), the concentration for an effect of 90% (IC90) was more than 8.95 µM. For the same compound, the IC50 (PBLUC_HILL_SLOPE 11.4, PBLUC_R_SQUARED 0.0512, read-out: LUCIFERASE INFECTION ASSAY - IC50) is more than 8.95 µM.
With `N#Cc1cc(-c2nc(-c3ccccc3)cs2)c(N)[nH]c1=S`, the IC90 is more than 10 µM. Under “PBLUC_HILL_SLOPE 3, PBLUC_R_SQUARED 0.293, read-out: LUCIFERASE INFECTION ASSAY - IC50”, the 50% inhibitory concentration (IC50) is 6.32 µM.
Turning to `CCOc1cc2c(cc1CNC(=O)c1cnc3cc(C)nn3c1C)OC(C)C2` (stereo unspecified), the 90% effect concentration (IC90) turned out to be 4.78 µM. In addition, for the setting “PBLUC_HILL_SLOPE 2.71, PBLUC_R_SQUARED 0.828, read-out: LUCIFERASE INFECTION ASSAY - IC50”, the IC50 was found to be 2.13 µM.
As for `O=C(Nc1ccc(OC(F)(F)F)cc1)c1c(-c2ccccc2)nnc2ccccc12`, the IC90 was more than 8.06 µM. The 50% inhibitory concentration (IC50) (FFLUC_HILL_SLOPE 2.82, FFLUC_R_SQUARED 0.654, HEPG2TOX_HILL_SLOPE 0.161, HEPG2TOX_R_SQUARED 0.349, PBLUC_HILL_SLOPE 0.343, PBLUC_R_SQUARED 0.11, read-out: LUCIFERASE INFECTION ASSAY - IC50) was more than 8.06 µM.
Consider `CCCOc1ccc(/C=N/NC(=S)NCCCN2CCOCC2)c(OCCC)c1`, for which the IC90 is more than 10 µM. For the same compound, the half-maximal inhibitory concentration (IC50) (PBLUC_HILL_SLOPE 4.29, PBLUC_R_SQUARED 0.235, read-out: LUCIFERASE INFECTION ASSAY - IC50) is 8.13 µM.
In the case of `COc1ccc(OC)c(-c2cs/c(=N\c3cccc(C)c3C)n2/N=C/c2ccc(C#N)cc2)c1`, the concentration for an effect of 90% (IC90) is more than 10 µM. Besides, the IC50 (HEPG2TOX_HILL_SLOPE 2.44, HEPG2TOX_R_SQUARED 0.954, PBLUC_HILL_SLOPE 4.56, PBLUC_R_SQUARED 0.492, read-out: LUCIFERASE INFECTION ASSAY - IC50) was found to be 6.34 µM.
For `Cc1ccc(CN(CCc2ccccc2)Cn2nc(CCC(N)=O)n(C3CC3)c2=S)s1`, the concentration for an effect of 90% (IC90) was more than 10 µM. The concentration for half-maximal inhibition (IC50) under setting [1] was more than 10 µM.
On to `CN(c1ccccc1)S(=O)(=O)c1ccc(C(=O)Nc2nn3cc(-c4ccccc4)nc3s2)cc1`, for which the IC90 is more than 10 µM. Besides, the IC50 (HEPG2TOX_HILL_SLOPE 0.762, HEPG2TOX_R_SQUARED 0.67, PBLUC_HILL_SLOPE 10.6, PBLUC_R_SQUARED 0.0386, read-out: LUCIFERASE INFECTION ASSAY - IC50) is more than 10 µM.
As to `CC(=O)Nc1cc(-c2ccc(C(=O)NC3CC3)cc2)cn2c(-c3ccc(F)c(Cl)c3)cnc12`, the concentration for an effect of 90% (IC90) is more than 7.13 µM. Besides, the IC50 under setting [1] was more than 7.13 µM.
Regarding `CCCCC(=O)NNC(=O)c1nn(-c2ccccc2)cc1O`, the concentration for an effect of 90% (IC90) came out at 6.61 µM. In addition, for the setting “HEPG2TOX_HILL_SLOPE 1.96, 5.56, HEPG2TOX_R_SQUARED 0.938, 0.275, PBLUC_HILL_SLOPE 4.09, 13.0, PBLUC_R_SQUARED 0.105, 0.390, read-out: LUCIFERASE INFECTION ASSAY - IC50”, the IC50 worked out at 4.4 µM.
Turning to `O=C(c1ccc(-n2cnc3ccccc3c2=O)cc1)N1CCN(S(=O)(=O)c2ccc3ccccc3c2)CC1`, the 90% effect concentration (IC90) is more than 10 µM. Further, the half-inhibitory concentration (IC50) (PBLUC_HILL_SLOPE 18.8, PBLUC_R_SQUARED 0.0296, read-out: LUCIFERASE INFECTION ASSAY - IC50) is 9.48 µM.
Take `CCOC(=O)C1CCCN(C(=O)Cc2cccc3ccccc23)CC1` (stereo unspecified): the concentration for an effect of 90% (IC90) is more than 9.72 µM. Also, the IC50 under setting [1] is more than 9.72 µM.
Take `Cc1ccc(-c2cc(C(=O)NNC(=O)c3nn(C)c(=O)c4ccccc34)[nH]n2)cc1`: the 90% effect concentration (IC90) is more than 10 µM. Besides, under setting [1], the IC50 was more than 10 µM.
For `Clc1cccc(-c2cnn3c(NCCCN4CCOCC4)ccnc23)c1`, the concentration for an effect of 90% (IC90) was more than 8.87 µM. The IC50 (PBLUC_HILL_SLOPE 1.37, PBLUC_R_SQUARED 0.567, read-out: LUCIFERASE INFECTION ASSAY - IC50) came out at 3.66 µM.
Turning to `COc1cc(NC(=O)COC(=O)c2ccccc2Nc2ccc(SC(F)F)cc2)c(C)cc1[N+](=O)[O-]`, the concentration for an effect of 90% (IC90) was more than 10 µM. The IC50 (HEPG2TOX_HILL_SLOPE 0.171, HEPG2TOX_R_SQUARED 0.654, read-out: LUCIFERASE INFECTION ASSAY - IC50) is more than 10 µM.
On to `FC(F)(F)Oc1ccc(Nc2n[nH]c(=S)s2)cc1`, for which the 90% effect concentration (IC90) worked out at 5 µM. Further, under “FFLUC_HILL_SLOPE 16.2, FFLUC_R_SQUARED 0.24, PBLUC_HILL_SLOPE 2.38, PBLUC_R_SQUARED 0.611, read-out: LUCIFERASE INFECTION ASSAY - IC50”, the concentration for half-maximal inhibition (IC50) was found to be 1.99 µM.

As a reminder, the IC50 is the concentration at which inhibition is half-maximal. As usually defined, the IC90 is the point of the concentration-response curve where the effect stands at 90%.
